The record followed here is US10758534B2 (Vertex Pharmaceuticals Incorporated, priority 2014, dated 2020).

Each structure is given as a SMILES string. Where two headings read alike, the source gives them in different places.

This test addresses T1, F508del (Homo sapiens, UniProt P13569, DEL508-508).
T1 construct: expressed in transfected cells
In words: Protocol 2: FRET membrane potential optical assay (VIPR), identification of correction compounds. Type of test: cell-based. The method, boiled down:
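NIH3T3 mouse fibroblasts stably expressing F508del-CFTR incubated with compound 16 h at 37 °C in serum-free medium, then loaded with CC2-DMPE/DiSBAC2(3) FRET dyes. Channel activated with 10 μM forskolin plus 20 μM genistein in Cl⁻-free (gluconate) bath; depolarisation from Cl⁻ efflux read on VIPR II.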

[1] abbreviates: F508del CFTR modulator activity, compounds of Table 1, read-out: EC30.
[2] abbreviates: Table 3, compounds of Table 1 as modulators of CFTR activity, protocol not stated.

T1 sequence (P13569 with tags, fused parts or gaps DEL508-508): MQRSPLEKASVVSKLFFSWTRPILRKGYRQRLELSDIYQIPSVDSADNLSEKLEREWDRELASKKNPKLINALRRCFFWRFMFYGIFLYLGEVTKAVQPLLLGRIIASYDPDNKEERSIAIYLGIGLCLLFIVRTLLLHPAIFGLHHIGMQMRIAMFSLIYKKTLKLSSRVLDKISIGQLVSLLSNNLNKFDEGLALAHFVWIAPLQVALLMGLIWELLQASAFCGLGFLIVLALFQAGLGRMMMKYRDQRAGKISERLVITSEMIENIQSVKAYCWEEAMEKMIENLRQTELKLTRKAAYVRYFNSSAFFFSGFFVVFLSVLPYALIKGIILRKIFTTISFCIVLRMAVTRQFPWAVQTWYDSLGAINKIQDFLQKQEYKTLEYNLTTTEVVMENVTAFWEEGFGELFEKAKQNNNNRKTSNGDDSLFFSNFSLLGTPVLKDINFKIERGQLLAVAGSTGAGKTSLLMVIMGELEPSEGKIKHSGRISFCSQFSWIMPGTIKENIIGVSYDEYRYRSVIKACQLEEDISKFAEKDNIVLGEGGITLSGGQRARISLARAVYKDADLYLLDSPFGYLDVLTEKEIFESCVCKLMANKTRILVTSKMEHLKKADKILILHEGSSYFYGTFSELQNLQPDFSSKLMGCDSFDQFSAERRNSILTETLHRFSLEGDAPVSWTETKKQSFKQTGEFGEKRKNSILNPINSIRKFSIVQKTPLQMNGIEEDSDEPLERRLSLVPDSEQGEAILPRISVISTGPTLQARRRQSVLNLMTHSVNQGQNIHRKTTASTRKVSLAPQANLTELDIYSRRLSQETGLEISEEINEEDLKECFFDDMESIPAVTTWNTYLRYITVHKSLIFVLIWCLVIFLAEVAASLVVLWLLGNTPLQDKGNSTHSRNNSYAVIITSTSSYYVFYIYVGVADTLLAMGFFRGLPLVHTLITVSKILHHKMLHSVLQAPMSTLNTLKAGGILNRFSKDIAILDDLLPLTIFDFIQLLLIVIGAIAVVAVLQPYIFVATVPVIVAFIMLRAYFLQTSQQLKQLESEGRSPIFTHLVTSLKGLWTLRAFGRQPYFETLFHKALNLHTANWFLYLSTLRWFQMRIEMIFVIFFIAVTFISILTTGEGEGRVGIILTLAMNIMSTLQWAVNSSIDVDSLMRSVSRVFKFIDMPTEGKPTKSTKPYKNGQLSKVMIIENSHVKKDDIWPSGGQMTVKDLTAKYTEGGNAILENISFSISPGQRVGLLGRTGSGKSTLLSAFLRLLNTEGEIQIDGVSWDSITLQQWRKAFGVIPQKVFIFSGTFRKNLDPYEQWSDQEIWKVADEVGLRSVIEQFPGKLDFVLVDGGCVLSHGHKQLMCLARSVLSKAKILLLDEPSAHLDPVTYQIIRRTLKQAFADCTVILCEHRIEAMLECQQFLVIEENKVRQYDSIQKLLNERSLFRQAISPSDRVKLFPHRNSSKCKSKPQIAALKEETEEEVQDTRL

Turning to `CC1CN(c2ncccc2C(=O)NS(=O)(=O)c2cccc(N3CCCC3C)n2)C(C)(C)C1` (centres unmarked) [Compound 2609, N—[[6-(2-methylpyrrolidin-1-yl)-2-pyridyl]sulfonyl]-2-(2,2,4-trimethylpyrrolidin-1-yl)pyridine-3-carboxamide], the EC30 under setting [1] was less than 3 µM.
As for `Cc1ccc(O)c(-c2ccc(C(=O)NS(=O)(=O)c3cccnc3N)c(N3C[C@@H](C)CC3(C)C)n2)c1` [Compound 2426, N-[(2-amino-3-pyridyl)sulfonyl]-6-(2-hydroxy-5-methyl-phenyl)-2-[(4S)-2,2,4-trimethylpyrrolidin-1-yl]pyridine-3-carboxamide], the EC30 under setting [1] was less than 3 µM.
`Cc1cc(C)c(Cn2c(C(=O)NS(=O)(=O)c3cccc(N)c3)cc3ccc(F)cc32)c(C)c1` [Compound 142, N-(3-aminophenyl)sulfonyl-6-fluoro-1-[(2,4,6-trimethylphenyl)methyl]indole-2-carboxamide]: the EC30 entry under setting [2] is “+++ (“+++” means <3 uM)”.
Take `C[C@@H]1CN(c2nc(-c3cccc4c3OCC4)ccc2C(=O)NS(=O)(=O)c2cccnc2N)C(C)(C)C1` [Compound 2163, N-[(2-amino-3-pyridyl)sulfonyl]-6-(2,3-dihydrobenzofuran-7-yl)-2-[(4S)-2,2,4-trimethylpyrrolidin-1-yl]pyridine-3-carboxamide]: under setting [1], the EC30 was less than 3 µM.
For the compound `Cc1cc(C)c(Oc2nc(C(C)(C)C)ccc2C(=O)NS(=O)(=O)c2cccc(=O)[nH]2)c(C)c1` [Compound 305, 6-tert-butyl-N-[(6-oxo-1H-pyridin-2-yl)sulfonyl]-2-(2,4,6-trimethylphenoxy)pyridine-3-carboxamide], under setting [2], the concentration for an effect of 30% (EC30) entry was “+++ (“+++” means <3 uM)”.
Take `C[C@@H]1CN(c2nc(-c3ccc(F)c(F)c3)ccc2C(=O)NS(=O)(=O)N2CC[C@H](N)C2)C(C)(C)C1` [Compound 2229, N-[(3S)-3-aminopyrrolidin-1-yl]sulfonyl-6-(3,4-difluorophenyl)-2-[(4S)-2,2,4-trimethylpyrrolidin-1-yl]pyridine-3-carboxamide]: the EC30 under setting [1] was 3 to 10 µM.
`COc1cccc(-c2cc(C(=O)NS(=O)(=O)c3ccccc3)n(Cc3c(C)cccc3C)n2)c1` [Compound 176, N-(benzenesulfonyl)-2-[(2,6-dimethylphenyl)methyl]-5-(3-methoxyphenyl)pyrazole-3-carboxamide]: the EC30 result under setting [2] is listed as “+++ (“+++” means <3 uM)”.
With `Cc1cccc(-c2ccc(C(=O)NS(=O)(=O)c3ccccc3)c(N3C[C@@H](C)CC3(C)C)n2)c1O` [Compound 2133, N-(benzenesulfonyl)-6-(2-hydroxy-3-methyl-phenyl)-2-[(4S)-2,2,4-trimethylpyrrolidin-1-yl]pyridine-3-carboxamide], the EC30 under setting [1] is less than 3 µM.
Still for that read-out and setting: for `COc1ccc(-c2ccc(C(=O)NS(=O)(=O)N3CC[C@H](N)C3)c(N3C[C@@H](C)CC3(C)C)n2)cc1` [Compound 2327, N-[(3S)-3-aminopyrrolidin-1-yl]sulfonyl-6-(4-methoxyphenyl)-2-[(4S)-2,2,4-trimethylpyrrolidin-1-yl]pyridine-3-carboxamide] the value was 3 to 10 µM.
On to `COC(=O)N1CCN(c2cccc(S(=O)(=O)NC(=O)c3cccnc3N3CC(C)CC3(C)C)n2)CC1` (centres unmarked) [Compound 2506, methyl 4-[6-[[2-(2,2,4-trimethylpyrrolidin-1-yl)pyridine-3-carbonyl]sulfamoyl]-2-pyridyl]piperazine-1-carboxylate], for which, under setting [1], the EC30 fell in the range of 3 to 10 µM.
For `Cc1cc(C)c(CCn2nc(C(C)(C)C)cc2C(=O)NS(=O)(=O)c2cccc(N)c2)c(C)c1` [Compound 7, N-(3-aminophenyl)sulfonyl-5-tert-butyl-2-[2-(2,4,6-trimethylphenyl)ethyl]pyrazole-3-carboxamide], the EC30 result under setting [2] was “+++ (“+++” means <3 uM)”.
Regarding `Cc1nn(C)c(C)c1-c1ccc(C(=O)NS(=O)(=O)c2cccnc2N)c(N2C[C@@H](C)CC2(C)C)n1` [Compound 2668, N-[(2-amino-3-pyridyl)sulfonyl]-6-(1,3,5-trimethylpyrazol-4-yl)-2-[(4S)-2,2,4-trimethylpyrrolidin-1-yl]pyridine-3-carboxamide], the EC30 under setting [1] was in the range of 3 to 10 µM.
For `CC1CN(c2ncccc2C(=O)NS(=O)(=O)c2cccc(Nc3ccc(-c4cnco4)cc3)n2)C(C)(C)C1` (centres unmarked) [Compound 2546, N—[[6-(4-oxazol-5-ylanilino)-2-pyridyl]sulfonyl]-2-(2,2,4-trimethylpyrrolidin-1-yl)pyridine-3-carboxamide], the concentration for an effect of 30% (EC30) under setting [1] was less than 3 µM.
In the case of `C[C@@H]1CC[C@H](C)N1c1nc(-c2cc(F)cc(OCC(C)(C)C)c2)ccc1C(=O)NS(=O)(=O)c1ccc[nH]c1=O` [Compound 572, 6-[3-(2,2-dimethylpropoxy)-5-fluoro-phenyl]-2-[(2S,5R)-2,5-dimethylpyrrolidin-1-yl]-N-[(2-oxo-1H-pyridin-3-yl)sulfonyl]pyridine-3-carboxamide], the EC30 entry under setting [2] is reported as “+++ (“+++” means <3 uM)”.
Take `CCCC(C)N1CCN(c2cccc(S(=O)(=O)NC(=O)c3cccnc3N3CC(C)CC3(C)C)n2)CC1` (centres unmarked) [Compound 2226, N—[[6-[4-(1-methylbutyl)piperazin-1-yl]-2-pyridyl]sulfonyl]-2-(2,2,4-trimethylpyrrolidin-1-yl)pyridine-3-carboxamide]: under setting [1], the EC30 was in the range of 3 to 10 µM.
For `CC(C)Oc1c(F)cc(-c2ccc(C(=O)NS(=O)(=O)c3cccc(N)n3)c(N3C[C@@H](C)CC3(C)C)n2)cc1F` [Compound 2608, N-[(6-amino-2-pyridyl)sulfonyl]-6-(3,5-difluoro-4-isopropoxy-phenyl)-2-[(4S)-2,2,4-trimethylpyrrolidin-1-yl]pyridine-3-carboxamide], under setting [1], the EC30 was less than 3 µM.
On the same count and under the same terms, next, `CC1CN(c2ncccc2C(=O)NS(=O)(=O)c2cccc(NC(C)c3cccc4ccccc34)n2)C(C)(C)C1` (centres unmarked) [Compound 2049, N—[[6-[1-(1-naphthyl)ethylamino]-2-pyridyl]sulfonyl]-2-(2,2,4-trimethylpyrrolidin-1-yl)pyridine-3-carboxamide]: less than 3 µM.
Turning to `Cc1cc(C)c(Cn2nc(C(C)(C)C)cc2C(=O)NS(=O)(=O)c2cccc(N)n2)c(C)c1` [Compound 173, N-[(6-amino-2-pyridyl)sulfonyl]-5-tert-butyl-2-[(2,4,6-trimethylphenyl)methyl]pyrazole-3-carboxamide], the EC30 entry under setting [2] is “++ (“++” means between 3 uM and 10 uM)”.
Still for that read-out and setting: for `Cc1ccc(-c2nc(C(C)(C)C)ccc2C(=O)NS(=O)(=O)c2ccc(N)nc2)cc1` [Compound 702, N-[(6-amino-3-pyridyl)sulfonyl]-6-tert-butyl-2-(p-tolyl)pyridine-3-carboxamide] the value was “++ (“++” means between 3 uM and 10 uM)”; for `Cc1cccc(C)c1Cn1nc(-c2ccccc2OC(C)C)cc1C(=O)NS(=O)(=O)c1ccccc1` [Compound 277, N-(benzenesulfonyl)-2-[(2,6-dimethylphenyl)methyl]-5-(2-isopropoxyphenyl)pyrazole-3-carboxamide], “+++ (“+++” means <3 uM)”.
On to `C[C@@H]1CN(c2nc(CCC3CC3)ccc2C(=O)NS(=O)(=O)c2cccnc2N)C(C)(C)C1` [Compound 2553, N-[(2-amino-3-pyridyl)sulfonyl]-6-(2-cyclopropylethyl)-2-[(4S)-2,2,4-trimethylpyrrolidin-1-yl]pyridine-3-carboxamide], for which the EC30 under setting [1] is less than 3 µM.
Same read-out and setting: next, `CCOc1cc(C)cc(-c2ccc(C(=O)NS(=O)(=O)c3cccnc3N)c(N3C[C@@H](C)CC3(C)C)n2)c1` [Compound 2241, N-[(2-amino-3-pyridyl)sulfonyl]-6-(3-ethoxy-5-methyl-phenyl)-2-[(4S)-2,2,4-trimethylpyrrolidin-1-yl]pyridine-3-carboxamide]: less than 3 µM.
The same measure, in the same setting: next, `CC(C)Oc1cnn(-c2ccc(C(=O)NS(=O)(=O)c3cccc(N)n3)c(N3C[C@@H](C)CC3(C)C)n2)c1` [Compound 2658, N-[(6-amino-2-pyridyl)sulfonyl]-6-(4-isopropoxypyrazol-1-yl)-2-[(4S)-2,2,4-trimethylpyrrolidin-1-yl]pyridine-3-carboxamide]: 3 to 10 µM; `C[C@@H]1CN(c2nc(-c3ccc(F)cc3)ccc2C(=O)NS(=O)(=O)c2cccnc2N)C(C)(C)C1` [Compound 2435, N-[(2-amino-3-pyridyl)sulfonyl]-6-(4-fluorophenyl)-2-[(4S)-2,2,4-trimethylpyrrolidin-1-yl]pyridine-3-carboxamide]: less than 3 µM.
`COCCNc1cccc(S(=O)(=O)NC(=O)c2ccc(C)nc2Oc2c(C)cc(C)cc2C)n1` [Compound 372, N-[[6-(2-methoxyethylamino)-2-pyridyl]sulfonyl]-6-methyl-2-(2,4,6-trimethylphenoxy)pyridine-3-carboxamide]: under setting [2], the EC30 result was “++ (“++” means between 3 uM and 10 uM)”.
Still for that read-out and setting: next, `CC(C)c1ccc(-c2ccc(C(=O)NS(=O)(=O)c3ccc[nH]c3=O)c(N3[C@H](C)CC[C@@H]3C)n2)cc1` [Compound 589, 2-[(2S,5R)-2,5-dimethylpyrrolidin-1-yl]-6-(4-isopropylphenyl)-N-[(2-oxo-1H-pyridin-3-yl)sulfonyl]pyridine-3-carboxamide]: “+++ (“+++” means <3 uM)”; `Cc1ccc(-c2nc(C(C)(C)C)ccc2C(=O)NS(=O)(=O)c2cccnc2N)cc1` [Compound 636, N-[(2-amino-3-pyridyl)sulfonyl]-6-tert-butyl-2-(p-tolyl)pyridine-3-carboxamide]: “++ (“++” means between 3 uM and 10 uM)”.
`Cc1cc(C)c(Oc2nc(-c3cc(OCC(C)C)ccc3F)ccc2C(=O)NS(=O)(=O)c2ccc[nH]c2=O)c(C)c1` [Compound 279, 6-(2-fluoro-5-isobutoxy-phenyl)-N-[(2-oxo-1H-pyridin-3-yl)sulfonyl]-2-(2,4,6-trimethylphenoxy)pyridine-3-carboxamide]: the EC30 result under setting [2] is “+++ (“+++” means <3 uM)”.
Turning to `Cc1cc(C)c(Cn2c(C(=O)NS(=O)(=O)c3cccc(N)c3)cc3c(F)cccc32)c(C)c1` [Compound 181, N-(3-aminophenyl)sulfonyl-4-fluoro-1-[(2,4,6-trimethylphenyl)methyl]indole-2-carboxamide], the EC30 entry under setting [2] was “+++ (“+++” means <3 uM)”.

One may read the EC30 as the concentration needed for an effect of 30%.
